Measured values taken from patent US6242428A, “Nucleoside analogs and uses in treating Plasmodium falciparum infection” (Unisearch Limited, priority 1998, dated 2001).
Entries after “also recorded” stand apart in the source; their conditions may differ. Read-outs that look alike come from different tables or passages of the source.

How the values were obtained:
P. falciparum = assay: In vitro toxicity against P. falciparum in culture (radiolabelled hypoxanthine incorporation / lactate dehydrogenase assay); type: cell-based, Plasmodium falciparum, FCQ27; conditions: for toxicity against P. falciparum, in words: statement in the transport and metabolism study
Experimental: P. falciparum, FCQ27, was maintained in culture using the techniques described by Trager & Jensen (W. Traqer and J. B. Jensen, Science, 193 673-675 (1976)). Cultures containing 2% hematocrit suspensions of parasitized human type O^+ erythrocytes in RPMI 1640 medium, supplemented with 25 mM HEPES-KOH, pH 7.2, 25 mM NaHCO3 and 10% human type O^+ serum (v/v) are maintained in modular incubator chambers at 37° C. in a gas mixture of 5% O2, 5% CO2 and 90% N2. The isolate of P. falciparum used in these experiments was FCQ27, routinely maintained in synchronized or asynchronous in vitro cultures at low hematocrit.
The potential toxicity of nucleoside analogues against P. falciparum in culture was tested in microtitre plates over the range of drug concentrations for 24 hours. The procedures for monitoring parasite viability is well established (A. M. Gero, H. V. Scott, W. J. O'Sullivan and R. I. Christopherson, Mol. Biochem. Parasitol. 34, 87-89 (1989)) and is based on radiolabelled hypoxanthine or isoleucine incorporation. The incorporation of [G-^3 H]hypoxanthine into the nucleic acids of P. falciparum was used to assess the viability of the parasite in vitro. Microculture plates were prepared with each well containing 225 μl of a 2% hematocrit culture of asynchronous parasited erythrocytes (1% parasitized cells). Each plate, containing varying concentrations of the drug to be studied (up to 200 μM final concentration for initial screen), was incubated for 24 h at 37° C. in a gas mixture of 5% O2, 5% CO2 and 90% N2, at which point [G-^3 H] hypoxanthine was added to each well and the incubation continued under identical conditions for a further 18-20 h. The control infected cells (i.e. without drug), routinely reached a parasitemia of 6-8% before harvesting. Expediency was aided by 96-well plate counter using lactate dehydrogenase for the drug susceptibility assay (L. K. Basco, F. Marguet, M. T. Makler and J. Lebbras, Exp. Parasitol. 80, 260-271 (1995); M. T. Makler and D. J. Hinrichs; Am. J. Trop. Med. Hyg. 48, 205-210 (1993)). This assay gave the identical results to the hypoxanthine technique. In addition, for each experiment, microscopic counting of Giemsa stained thin slides was used as a control.
The biological screen involved evaluation of the compounds against the protozoan P. falciparum in in vitro culture. The range of drug concentrations was used independently by two assays. One, radiolabelled hypoxanthine incorporation into the nucleic acid of P. falciparum, and the other, more expedient assay, a 96-well plate susceptibility assay using lactate dehydrogenase. Both assays gave identical results. In addition, microscopic counting of Giemsa stained thin slides was used as a control. Examples of experimental curves are attached as Appendix 2. The biological tests were done at several concentrations. The highest concentration was 200 μM, the compounds were considered active at concentrations less than 40 μM.

[1] = test system: P. falciparum infected erythrocytes (trophozoites); type: in vitro ADME, human erythrocytes infected with Plasmodium falciparum
Experimental: The metabolism of the L-nucleoside conjugates was studied by HPLC analysis. The primary aim was to determine their ability to be catabolized by parasite purine salvage enzymes. Some effect on the purine metabolic pools was also observed.
For each HPLC determination 200 μL of packed cells of 80-90% trophozoite infected cells were used. These were isolated from in vitro cultures by synchronization of the parasites in in vitro cultures using sterile D-sorbitol (L. Lambros and J. P. Vanderberg, Parasitol. 65, 418-420 (1979)) followed by separation of the trophozoites from non infected erythrocytes by Percoll gradients as described previously (A. M. Gero, H. V. Scott, W. J. O'Sullivan and R. I. Christopherson, Mol. Biochem. Parasitol. 34, 87-89 (1989)). Trophozoites were incubated at 37° C. for 2 hours with each compound to be tested. Compounds were incubated with both whole infected cells as whole and lyzed uninfected normal erythrocytes to determine:
a) entry to the cell (whether they were transported);
Drug incubation was terminated by centrifugation through silicon oil using the method of Upston and Gero (J. M. Upston and A. M. Gero, Biochem. Biophys. Acta. 1236, 249-258 (1995)). This procedure separated intact trophozoites from extracellular non-transported drug solution.
The metabolism of nucleosides with potential chemotherapeutic activity was assessed by the analysis of cytoplasmic samples by reverse phase ion-pair high performance liquid chromatography (R. S. Toguzov, Y. V. Tikhonov, A. M. Pimenov, V. Prokudin, Journal of Chromatography, I. Biomedical Appl. 434, 447-453 (1988)). Nucleotides, nucleosides and bases were separated by this HPLC method.
It has been established that transport and uptake in parasite invaded cells is different from that of normal blood erythrocytes (A. M. Gero & A. M. Wood, In: Pyrine & Pyrimidine Methabolism in Man VII, Part A. (R. A. Harkness et al., Eds) Plenum Press, NY, 169-172 (1991)). Invasion by the malaria parasite comprises the cell membrane, allowing penetration of unnatural substances of various size and shape, whereas normal cells are very selective in uptake. It was shown that L-nucleosides and their derivatives easily penetrate invaded cells, while they have a very slow rate of uptake into normal cells, if they enter at all. In order to obtain preliminary data on transport, uptake and metabolism, the HPLC method was used to analyze the following 10 Lipitek compounds: L-101, L-103, L-109, L-111, L-117, L-133, L-138, GCl 1007, GCl 1027, GCl 1069.
These compounds were chosen for the identification of possible metabolites. In this experiment the compounds were incubated with both whole infected cells, and with whole and lysed uninfected cells, followed by the separation of unreacted compound and HPLC analysis.

[2] = Plasmodium falciparum, 24 h, Table 1, 24 h drug exposure, up to 200 μM, read-out: IC50
[3] = Plasmodium falciparum, Erythrocyte, 24 h, Table 6, SATE derivatives of FUdR, read-out: ID50 (the source's name)
[4] = Plasmodium falciparum, Table 2, FUdR linkage position 5', read-out: IC50
[5] = Table 1, 24 h drug exposure, up to 200 μM, read-out: IC50
[6] = Plasmodium falciparum, Table 3, α-L configuration of the L-nucleoside, read-out: IC50
[7] = Plasmodium falciparum, Table 5, β-D-FUdR and possible metabolic products, read-out: IC50

## O=c1[nH]c(=O)n([C@H]2C[C@H](OP(O)(=S)OC[C@H]3O[C@@H](n4cc(F)c(=O)[nH]c4=O)C[C@@H]3O)[C@@H](CO)O2)cc1F (stereo partly drawn) [L-128, β-D, β-D-FUdR] S = P-O]
P. falciparum
  In vitro activity against P. falciparum, in words: only active phosphorothioate analog; also recorded: greater in comparison with all possible products of hydrolysis; also recorded: most active compound tested
P. falciparum; L-128 versus L-101
  factor of increase in activity on replacing phosphate by phosphorothioate: 10
P. falciparum; Plasmodium falciparum
  IC50: 1.5 µM
P. falciparum; Plasmodium falciparum, 24 h
  IC50: 1.5 µM

## O=c1[nH]c(=O)n([C@H]2C[C@@H](O)[C@H](CO)O2)cc1F [GCI 1027, 2'-deoxy-α-L-5-fluorouridine]
P. falciparum
  In vitro activity against P. falciparum, in words: no activity
  toxicity against P. falciparum, in words: toxic against P. falciparum
P. falciparum; [2]
  IC50: > 200 µM
P. falciparum; [3]
  IC50: > 200 µM
[1]
  entry to the infected cell: entered the infected cells

## CNc1ncnc2c1ncn2[C@H]1O[C@@H](CO)[C@H](O)[C@@H]1O [GCI 1085, N^6 -methyl-β-L-A]
P. falciparum; [2]
  IC50: > 200 µM

## Nc1ccn([C@@H]2C[C@@H](OP(=O)(O)OC[C@H]3O[C@@H](n4cc(F)c(=O)[nH]c4=O)C[C@@H]3O)[C@H](CO)O2)c(=O)n1 [L-113]
P. falciparum; [2]
  IC50: 17 µM
P. falciparum; [4]
  IC50: 17 µM
P. falciparum; Plasmodium falciparum, Table 3, β-L configuration of the L-nucleoside, read-out: IC50
  IC50: 17 µM

## O=c1[nH]c(=O)n([C@H]2C[C@@H](OP(O)(=S)OC[C@H]3O[C@@H](n4cc(F)c(=O)[nH]c4=O)C[C@@H]3O)[C@H](CO)O2)cc1F (stereo partly drawn) [L-103 thio, [α-L,β-D]-FUdR, S = P-O]
P. falciparum
  In vitro activity against P. falciparum, in words: reduced dramatically
P. falciparum; Plasmodium falciparum
  IC50: > 200 µM
P. falciparum; Plasmodium falciparum, 24 h
  IC50: > 200 µM

## O=[N+]([O-])c1ccc(CSc2ncnc3c2ncn3[C@@H]2O[C@H](CO)[C@@H](O)[C@H]2O)cc1 [NBMPR, nitrobenzylthionosine, reference compound]
P. falciparum; [2]
  IC50: 100 µM

## α-L-dT, NBMPR [L-146]
P. falciparum; [5]
  IC50: > 200 µM

## Nc1ncnc2c1ncn2[C@@H]1O[C@@H](CO)[C@H](O)[C@H]1O [GCI 1018, α-L-arabinofuranosyl adenine]
P. falciparum; Plasmodium falciparum, 24 h
  IC50: > 200 µM

## Nc1ncnc2c1ncn2[C@@H]1CC[C@H](CO)O1 [GCI 1077, β-L-ddA]
P. falciparum; [2]
  IC50: > 200 µM

## Nc1ncnc2c1ncn2[C@@H]1C[C@@H](O)[C@H](CO)O1 [GCI 1036, β-L-Da]
P. falciparum; [2]
  IC50: > 200 µM

## O=c1[nH]cnc2c1ncn2[C@@H]1C[C@@H](O)[C@H](CO)O1 [GCI 1037, β-L-dI]
P. falciparum; [2]
  IC50: > 200 µM

## β-L-mercapto-G [GCI 1034]
P. falciparum; [5]
  IC50: > 200 µM

## β-L-FUdR 5'SATE [B04]
P. falciparum; [5]
  IC50: 200 µM

## Nc1nc2c(ncn2[C@H]2O[C@@H](CO)[C@H](O)[C@@H]2O)c(=O)[nH]1 [GCI 1030, β-L-G]
P. falciparum; [2]
  IC50: > 200 µM

## β-D-FUdR 3'-5'SATE [B03]
P. falciparum; [5]
  IC50: 6 µM

## Nc1nc2c(ncn2[C@@H]2C[C@@H](O)[C@H](CO)O2)c(=O)[nH]1 [GCI 1070, β-L-dG]
P. falciparum; [2]
  IC50: > 200 µM

## Nc1ccn([C@H]2C[C@@H](OP(=O)(O)OC[C@H]3O[C@@H](n4cc(F)c(=O)[nH]c4=O)C[C@@H]3O)[C@H](CO)O2)c(=O)n1 [L-111, 3'-O-(β-D-5-fluoro-2'-deoxyuridinyl)-α-L-2'-deoxycytidine]
P. falciparum
  In vitro activity against P. falciparum, in words: most active; also recorded: no obvious difference in the activity
  toxicity against P. falciparum, in words: toxic against P. falciparum
P. falciparum; [2]
  IC50: 38 µM
P. falciparum; [4]
  IC50: 38 µM
P. falciparum; [6]
  IC50: 38 µM
[1]
  entry to the infected cell: entered the infected cells

## O=c1[nH]c(=O)n([C@@H]2C[C@@H](O)[C@H](CO)O2)cc1F [β-L-FUdR, β-L-5-fluoro-2'-deoxyuridine]
P. falciparum; [3]
  IC50: > 200 µM

## O=c1[nH]c(=O)n([C@@H]2OC[C@H](O)[C@@H]2O)cc1F [GCI 1007, α-L-erythrofuranosyl-5-fluorouracil]
P. falciparum; [2]
  IC50: > 200 µM
P. falciparum
  toxicity against P. falciparum, in words: toxic against P. falciparum
[1]
  entry to the infected cell: entered the infected cells

## 6-thio-β-L-purine [GCI 1076]
P. falciparum; [5]
  IC50: > 200 µM

## Nc1ncnc2c1ncn2[C@@H]1O[C@@H](CO)[C@H](O)[C@@H]1O [GCI 1066, α-L-A]
P. falciparum; Plasmodium falciparum, 24 h
  IC50: > 200 µM

## Nc1ncnc2c1ncn2[C@H]1CC[C@H](CO)O1 [GCI 1079, α-L-ddA]
P. falciparum; [2]
  IC50: > 200 µM

## α-L-FUdR 5'SATE [B06]
P. falciparum; [5]
  IC50: 150 µM

## O=c1[nH]cnc2c1ncn2[C@H]1O[C@@H](CO)[C@H](O)[C@@H]1O [GCI 1033, β-L-I]
P. falciparum; [2]
  IC50: > 200 µM

## O=c1[nH]c(=O)n([C@H]2C[C@H](O)[C@@H](CO)O2)cc1F [β-D-FUdR, β-D-5-fluoro-2'-deoxyuridine, reference compound]
P. falciparum; [7]
  IC50: 34 µM

## Nc1ncnc2c1ncn2[C@@H]1C[C@@H](OP(O)(=S)OC[C@H]2O[C@@H](n3cc(F)c(=O)[nH]c3=O)C[C@@H]2O)[C@H](CO)O1 (stereo partly drawn) [L-138-thio, β-L-dA, β-D-FUdR, S = P-O]
P. falciparum
  In vitro activity against P. falciparum, in words: reduced dramatically
P. falciparum; Plasmodium falciparum, 24 h
  IC50: 100 µM

## O=c1[nH]cc(F)c(=O)[nH]1 [5FUracil, 5-fluorouracil, reference compound]
P. falciparum; Plasmodium falciparum
  IC50: 6 µM

## β-L-dU, NBMPR [L-145]
P. falciparum; [5]
  IC50: > 200 µM

## β-D-FUdR 3'SATE [B01]
P. falciparum; [5]
  IC50: 100 µM

## O=c1[nH]c(=O)n([C@H]2C[C@H](O)[C@@H](COP(=O)(O)O)O2)cc1F [β-D-5'-FUdRmP, β-D-FUdR monophosphate, reference compound]
P. falciparum; [7]
  IC50: 50 µM

## β-D-FUdR 5'SATE [B02]
P. falciparum; [5]
  IC50: 60 µM

## O=c1ccn([C@@H]2C[C@@H](OP(O)(=S)OC[C@H]3O[C@@H](n4cc(F)c(=O)[nH]c4=O)C[C@@H]3O)[C@H](CO)O2)c(=O)[nH]1 (stereo partly drawn) [L-117 thio, β-L-dU, β-D-FUdR S = P-O]
P. falciparum
  In vitro activity against P. falciparum, in words: reduced dramatically
P. falciparum; Plasmodium falciparum
  IC50: > 200 µM
P. falciparum; Plasmodium falciparum, 24 h
  IC50: > 200 µM

## Nc1ncnc2c1ncn2[C@H]1C[C@@H](OP(=O)(O)OC[C@H]2O[C@@H](n3cc(F)c(=O)[nH]c3=O)C[C@@H]2O)[C@H](CO)O1 [L-125, α-L-dA, β-D-FUdR]
P. falciparum
  In vitro activity against P. falciparum, in words: reduces the dimer activity in comparison with dimers containing the β-L unit
P. falciparum; [2]
  IC50: 60 µM
P. falciparum; [4]
  IC50: 60 µM
P. falciparum; [6]
  IC50: 60 µM

## β-D-FUdR, β-L-A [L-144]
P. falciparum; [5]
  IC50: 140 µM
P. falciparum; Table 2, FUdR linkage position 3', read-out: IC50
  IC50: 140 µM
